Experimental data from ChEMBL document CHEMBL4177723, “Histone H3 peptides incorporating modified lysine residues as lysine-specific demethylase 1 inhibitors” (Bioorg Med Chem Lett, 2018).

Tests used:
[1] = target: T1, Amine oxidase [flavin-containing] B (Homo sapiens, UniProt P27338)
T1 sequence (P27338 whole entry): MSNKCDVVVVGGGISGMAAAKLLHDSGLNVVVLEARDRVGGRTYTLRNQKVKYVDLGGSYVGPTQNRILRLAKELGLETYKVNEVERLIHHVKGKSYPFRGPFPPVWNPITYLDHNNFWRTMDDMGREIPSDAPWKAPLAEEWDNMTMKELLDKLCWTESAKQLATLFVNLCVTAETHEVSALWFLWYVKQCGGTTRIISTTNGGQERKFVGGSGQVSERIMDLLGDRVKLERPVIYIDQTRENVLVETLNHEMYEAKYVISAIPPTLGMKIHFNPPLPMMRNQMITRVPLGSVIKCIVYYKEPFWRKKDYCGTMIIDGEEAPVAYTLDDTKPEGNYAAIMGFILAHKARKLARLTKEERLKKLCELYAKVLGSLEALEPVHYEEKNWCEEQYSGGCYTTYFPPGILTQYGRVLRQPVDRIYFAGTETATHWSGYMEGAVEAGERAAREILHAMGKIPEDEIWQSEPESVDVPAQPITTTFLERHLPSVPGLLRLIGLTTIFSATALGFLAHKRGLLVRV

[2] = target: Lysine-specific histone demethylase 1A (Homo sapiens, UniProt O60341)
[3] = target: T2, Amine oxidase [flavin-containing] A (Homo sapiens, UniProt P21397)
T2 sequence (P21397 whole entry): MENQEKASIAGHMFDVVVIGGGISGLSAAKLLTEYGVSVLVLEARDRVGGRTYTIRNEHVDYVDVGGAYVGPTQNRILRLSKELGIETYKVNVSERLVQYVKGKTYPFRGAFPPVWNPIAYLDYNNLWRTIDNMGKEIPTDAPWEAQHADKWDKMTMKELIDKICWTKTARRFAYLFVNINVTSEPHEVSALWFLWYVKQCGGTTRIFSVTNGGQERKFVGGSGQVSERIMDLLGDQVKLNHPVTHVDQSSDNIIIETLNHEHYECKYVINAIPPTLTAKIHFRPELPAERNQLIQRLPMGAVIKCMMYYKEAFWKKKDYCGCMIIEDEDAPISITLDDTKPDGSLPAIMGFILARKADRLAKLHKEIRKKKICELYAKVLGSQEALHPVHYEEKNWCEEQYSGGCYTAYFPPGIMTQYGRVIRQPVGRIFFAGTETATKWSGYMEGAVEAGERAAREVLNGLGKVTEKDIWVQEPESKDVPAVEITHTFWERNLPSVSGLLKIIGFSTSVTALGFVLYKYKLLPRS

**Q.** With `C[C@H](N)C(=O)N[C@@H](CCCNC(=N)N)C(=O)N[C@H](C(=O)N[C@@H](CCCCN[C@@H]1C[C@H]1c1ccccc1)C(=O)N[C@@H](CCC(N)=O)C(=O)N[C@H](C(=O)N[C@@H](C)C(=O)N[C@@H](CCCNC(=N)N)C(=O)N[C@@H](CCCCN)C(=O)N[C@@H](CO)C(=O)N[C@H](C(=O)O)[C@@H](C)O)[C@@H](C)O)[C@@H](C)O` as the compound, how does the IC50 [1] read?
**A.** > 10 µM

**Q.** And the IC50 [2]?
**A.** 0.154 µM

**Q.** And the IC50 [3]?
**A.** > 10 µM
